Values quoted from earlier work as cited in patent publication US20180200208A1, “COMPOSITIONS FOR IMPROVING OR MAINTAINING MYOCARDIAL FUNCTION” (RepoCeuticals ApS, priority 2015, published 2018).

What was measured:
recombinant MT2 receptor = target: T1, recombinant MT2 receptor (Homo sapiens, UniProt P49286); details: relative to melatonin
T1 sequence (P49286 1-362): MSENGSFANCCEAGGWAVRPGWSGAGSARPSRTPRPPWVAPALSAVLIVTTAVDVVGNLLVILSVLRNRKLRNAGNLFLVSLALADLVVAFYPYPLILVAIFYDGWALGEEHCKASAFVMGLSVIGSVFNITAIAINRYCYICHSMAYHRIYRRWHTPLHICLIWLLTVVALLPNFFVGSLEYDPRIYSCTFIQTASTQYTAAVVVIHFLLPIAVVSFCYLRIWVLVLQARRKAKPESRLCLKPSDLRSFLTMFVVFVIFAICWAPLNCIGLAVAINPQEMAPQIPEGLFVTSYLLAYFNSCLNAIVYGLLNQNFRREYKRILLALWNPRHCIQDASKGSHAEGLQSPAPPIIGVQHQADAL

recombinant MT1 receptor = recombinant MT1 receptor (Homo sapiens, UniProt P48039); details: relative to melatonin
[1] = system: patients with primary sleep disorders; details: oral doses of up to 5 mg
[2] = at 2-8° C.

Chain of recombinant MT1 receptor (P48039 whole entry): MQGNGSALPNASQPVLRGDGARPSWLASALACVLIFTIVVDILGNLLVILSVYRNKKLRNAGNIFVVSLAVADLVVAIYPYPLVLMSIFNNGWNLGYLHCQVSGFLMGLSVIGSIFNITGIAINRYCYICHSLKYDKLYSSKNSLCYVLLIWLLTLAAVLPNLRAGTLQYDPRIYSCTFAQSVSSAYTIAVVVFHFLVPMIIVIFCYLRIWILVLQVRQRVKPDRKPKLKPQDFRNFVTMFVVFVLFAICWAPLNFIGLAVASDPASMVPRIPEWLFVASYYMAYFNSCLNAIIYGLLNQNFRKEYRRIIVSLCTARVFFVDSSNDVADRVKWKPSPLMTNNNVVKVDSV

CC(=O)NCCc1c[nH]c2ccc(O)cc12 [N-acetylserotonin]
affinity for recombinant MT2 receptor as % of that of melatonin (recombinant MT2 receptor): 0.22% | affinity for recombinant MT1 receptor as % of that of melatonin (recombinant MT1 receptor): 0.14%

COc1cc2c(CCNC(C)=O)c[nH]c2cc1O [6-OHM, 6-hydroxymelatonin]
affinity for recombinant MT2 receptor as % of that of melatonin (recombinant MT2 receptor): 13% | affinity for recombinant MT1 receptor as % of that of melatonin (recombinant MT1 receptor): 20%

Oc1ccc(C=Cc2cc(O)cc(O)c2)cc1 [Resveratrol, resveratrol]
solubility in ethanol, dimethyl sulfoxide and various oils: readily soluble | solubility in water: almost insoluble in water

COc1ccc2[nH]cc(CCNC(C)=O)c2c1 [Melatonin, N-acetyl-5-methoxytryptamine]
solubility in DMSO: soluble in DMSO | solubility in water: insoluble in water | increase of sleep duration (average) [1]: 7 to 8 min | reduction of sleep latency (average) [1]: 7 to 8 min

COC1=C(OC)C(=O)C(C/C=C(\C)CC/C=C(\C)CC/C=C(\C)CC/C=C(\C)CC/C=C(\C)CC/C=C(\C)CC/C=C(\C)CC/C=C(\C)CC/C=C(\C)CCC=C(C)C)=C(C)C1=O [Coenzyme Q10]
solubility in ethanol, dimethyl sulfoxide and various oils: can be dissolved | solubility in water: almost water-insoluble

O=C1C[C@@H](c2ccc(O)cc2)Oc2cc(O)cc(O)c21 [Naringenin, naringenin]
solubility in ethanol, dimethyl sulfoxide and various oils: readily soluble | solubility in water: almost insoluble in water

COc1ccc(NC=O)c(C(=O)CCNC(C)=O)c1 [AFMK, N^1-acetyl-N^2-formyl-5-methoxykynuramine]
long-term stability [2]: good long-term stability | solubility in DMSO: soluble in DMSO | solubility in water: insoluble in water
